The target in one assay is T1, human TLR7 (Homo sapiens, UniProt Q9NYK1).
T1 construct: host or cells: HEK-Blue cells
T1 sequence (Q9NYK1 27-1049): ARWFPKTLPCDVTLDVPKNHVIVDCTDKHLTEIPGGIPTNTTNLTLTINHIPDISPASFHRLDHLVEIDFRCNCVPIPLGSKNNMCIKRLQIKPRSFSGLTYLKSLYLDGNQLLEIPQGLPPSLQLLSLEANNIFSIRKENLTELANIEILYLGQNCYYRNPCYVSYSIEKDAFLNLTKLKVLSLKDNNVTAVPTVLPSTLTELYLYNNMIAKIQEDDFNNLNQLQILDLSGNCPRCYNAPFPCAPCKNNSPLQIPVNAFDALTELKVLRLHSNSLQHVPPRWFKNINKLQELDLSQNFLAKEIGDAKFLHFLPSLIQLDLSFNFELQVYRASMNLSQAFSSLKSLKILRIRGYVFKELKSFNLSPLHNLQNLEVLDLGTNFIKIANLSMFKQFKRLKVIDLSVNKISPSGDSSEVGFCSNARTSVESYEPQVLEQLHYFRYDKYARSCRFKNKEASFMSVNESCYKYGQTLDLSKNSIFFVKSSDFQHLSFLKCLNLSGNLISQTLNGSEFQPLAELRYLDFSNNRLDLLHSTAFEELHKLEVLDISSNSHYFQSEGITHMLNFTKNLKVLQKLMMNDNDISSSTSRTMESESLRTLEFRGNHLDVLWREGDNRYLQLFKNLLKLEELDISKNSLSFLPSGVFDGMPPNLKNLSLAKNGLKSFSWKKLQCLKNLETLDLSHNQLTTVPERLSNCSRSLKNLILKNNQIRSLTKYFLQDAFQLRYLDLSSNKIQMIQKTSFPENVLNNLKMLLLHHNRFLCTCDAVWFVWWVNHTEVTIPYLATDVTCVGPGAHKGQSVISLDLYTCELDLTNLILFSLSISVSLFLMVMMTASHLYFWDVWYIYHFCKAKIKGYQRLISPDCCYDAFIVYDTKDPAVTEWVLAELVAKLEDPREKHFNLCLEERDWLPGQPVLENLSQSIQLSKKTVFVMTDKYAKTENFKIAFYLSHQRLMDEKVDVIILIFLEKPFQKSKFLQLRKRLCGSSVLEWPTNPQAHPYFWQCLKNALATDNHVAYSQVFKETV
Put plainly: TLR7 inhibition reporter assay (HEK-Blue SEAP). In kind it is cell-based. As to conditions: HEK-Blue cells overexpressing human TLR7, gardiquimod 7.5 μM, 22 hour incubation. The procedure, abridged: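 Cells (15000/well for TLR7, 20,000 for TLR8) were treated with compounds over 0.05 nM-50 μM final. After 22 h at 37° C, 5% CO2, SEAP was measured with HEK-Blue Detection reagent; percent inhibition was taken as reduction of agonist-plus-DMSO signal relative to a known inhibitor.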
(In a reporter assay the amount or activity of a reporter protein is the signal.)

A further assay deals with T2, human TLR8 (Homo sapiens, UniProt Q9NR97).
T2 construct: host or cells: HEK-Blue cells
T2 sequence (Q9NR97 27-1041): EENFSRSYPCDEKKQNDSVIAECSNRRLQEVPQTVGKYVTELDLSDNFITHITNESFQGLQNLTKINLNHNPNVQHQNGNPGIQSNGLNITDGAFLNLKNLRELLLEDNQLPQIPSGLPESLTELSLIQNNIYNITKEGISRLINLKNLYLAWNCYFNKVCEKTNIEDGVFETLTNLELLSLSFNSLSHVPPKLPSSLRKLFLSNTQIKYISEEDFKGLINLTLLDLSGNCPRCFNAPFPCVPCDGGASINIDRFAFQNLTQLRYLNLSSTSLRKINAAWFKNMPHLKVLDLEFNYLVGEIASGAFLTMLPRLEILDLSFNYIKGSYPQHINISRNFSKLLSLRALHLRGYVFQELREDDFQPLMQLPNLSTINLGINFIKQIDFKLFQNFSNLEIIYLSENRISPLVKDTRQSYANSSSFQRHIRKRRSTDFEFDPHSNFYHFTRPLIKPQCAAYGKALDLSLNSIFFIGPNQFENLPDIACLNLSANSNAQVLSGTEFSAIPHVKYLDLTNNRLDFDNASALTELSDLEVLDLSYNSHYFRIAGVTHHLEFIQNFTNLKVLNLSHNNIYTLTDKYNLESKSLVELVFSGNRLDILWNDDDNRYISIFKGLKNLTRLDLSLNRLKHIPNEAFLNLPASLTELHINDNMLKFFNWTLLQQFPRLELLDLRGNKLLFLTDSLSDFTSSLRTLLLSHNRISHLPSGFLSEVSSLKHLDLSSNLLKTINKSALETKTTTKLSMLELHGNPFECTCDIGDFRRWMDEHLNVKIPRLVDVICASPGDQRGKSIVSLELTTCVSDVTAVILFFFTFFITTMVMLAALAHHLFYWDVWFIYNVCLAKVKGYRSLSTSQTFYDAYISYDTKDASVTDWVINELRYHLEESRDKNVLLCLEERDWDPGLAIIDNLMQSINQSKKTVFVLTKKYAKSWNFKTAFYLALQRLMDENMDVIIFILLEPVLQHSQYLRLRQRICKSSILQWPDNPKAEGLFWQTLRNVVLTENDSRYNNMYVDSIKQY
Put plainly: TLR8 inhibition reporter assay (HEK-Blue SEAP). The class given is cell-based. As to conditions: HEK-Blue cells overexpressing human TLR8, R848 15.9 μM, 22 hour incubation. In a few lines: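 Human TLR7/8/9 HEK-Blue reporter lines; dose range 0.05 nM–50 μM; 30 min RT preincubation; stimulus gardiquimod 7.5 μM / R848 15.9 μM / ODN2006 5 nM respectively; 22 h, 37 °C; SEAP detected colorimetrically.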

By pIC50 is commonly meant the negative decadic logarithm of the IC50, by convention in mol/L. Read a low pIC50 as a large IC50.

pIC50: −log10 of the molar value. Structures can show the parent of a compound that is named as a salt.

Consider `COc1cc(-c2cc3[nH]c(=O)n(C4CCC(N5CCC(F)(F)C5)CC4)c3cc2C(C)C)cn2ncnc12` (single isomer, unassigned) [Example 295, 1-(4-(3,3-difluoropyrrolidin-1-yl)cyclohexyl)-6-isopropyl-5-(8-methoxy-[1,2,4]triazolo[1,5-a]pyridin-6-yl)-1,3-dihydro-2H-benzo[d]imidazol-2-one], for which the pIC50 was 7.38 at human TLR7 and 8.10 against human TLR8.

`CCC(C)N1CCC[C@@H](n2c(=O)[nH]c3cc(-c4cc(C)c5ncnn5c4)c(C)cc32)C1` (stereo partly drawn) [Example 28, 1-((3R)-1-(sec-butyl)piperidin-3-yl)-6-methyl-5-(8-methyl-[1,2,4]triazolo[1,5-a]pyridin-6-yl)-1,3-dihydro-2H-benzo[d]imidazol-2-one]: the pIC50 on human TLR7 is 7.56; against human TLR8, 7.65.

For the compound `COc1cc(-c2cc3[nH]c(=O)n([C@H]4CC[C@@H](N)CC4)c3cc2C)cn2ncnc12` [1 EG, 1-((1s,4s)-4-aminocyclohexyl)-5-(8-methoxy-[1,2,4]triazolo[1,5-a]pyridin-6-yl)-6-methyl-1,3-dihydro-2H-benzo[d]imidazol-2-one], the pIC50 at human TLR7 was 7.27; on human TLR8, 7.49.

As to `COC1CN(C2CCC(n3c(=O)[nH]c4cc(-c5cn6ncnc6c(C)c5C)c(C(C)C)cc43)CC2)C1` (single isomer, unassigned) [Example 277, 5-(7,8-dimethyl-[1,2,4]triazolo[1,5-a]pyridin-6-yl)-6-isopropyl-1-(4-(3-methoxyazetidin-1-yl)cyclohexyl)-1,3-dihydro-2H-benzo[d]imidazol-2-one], the pIC50 against human TLR7 is 8.62; on human TLR8, 9.13.

As to `COc1cc(-c2cc3[nH]c(=O)n(C4CCNCC4)c3cc2C)cn2ncnc12` [1 E, 5-(8-methoxy-[1,2,4]triazolo[1,5-a]pyridin-6-yl)-6-methyl-1-(piperidin-4-yl)-1H-benzo[d]imidazol-2(3H)-one, TFA], the pIC50 against human TLR7 was 6.44; against human TLR8 it was 6.65.

As for `COc1cc(-c2cc3[nH]c(=O)n([C@@H]4CCCNC4)c3cc2C)cn2ncnc12` [1 EH, (R)-5-(8-methoxy-[1,2,4]triazolo[1,5-a]pyridin-6-yl)-6-methyl-1-(piperidin-3-yl)-1,3-dihydro-2H-benzo[d]imidazol-2-one], the pIC50 is 7.37 against human TLR7 and 7.30 against human TLR8.

Regarding `Cc1c(-c2cc3[nH]c(=O)n(C4CCC(N5CCCC(F)C5)CC4)c3cc2C(C)C)cn2ncnc2c1C` (stereo not shown) [Example 273, 5-(7,8-dimethyl-[1,2,4]triazolo[1,5-a]pyridin-6-yl)-1-(4-(3-fluoropiperidin-1-yl)cyclohexyl)-6-isopropyl-1,3-dihydro-2H-benzo[d]imidazol-2-one], the pIC50 at human TLR7 was 8.04; at human TLR8 it was 9.06.

For the compound `Cc1cc2c(cc1-c1cc(C)c3ncnn3c1)[nH]c(=O)n2[C@@H]1CCCNC1` [1 ED, (R)-6-methyl-5-(8-methyl-[1,2,4]triazolo[1,5-a]pyridin-6-yl)-1-(piperidin-3-yl)-1,3-dihydro-2H-benzo[d]imidazol-2-one], the negative logarithm of the IC50 (pIC50) was 7.74 against human TLR7 and 7.42 against human TLR8.

In the case of `COc1cc(-c2cc3[nH]c(=O)n(C4CCC(N5CC(F)(F)C5)CC4)c3cc2C(C)C)cn2ncnc12` (single isomer, unassigned) [Example 297], the pIC50 against human TLR7 was 7.43; at human TLR8 it was 8.08.

For `Cc1c(-c2cc3[nH]c(=O)n(C4CCC(N5CCCC(F)C5)CC4)c3cc2C(C)C)cn2ncnc2c1C` (stereo not shown) [Example 274, 5-(7,8-dimethyl-[1,2,4]triazolo[1,5-a]pyridin-6-yl)-1-(4-(3-fluoropiperidin-1-yl)cyclohexyl)-6-isopropyl-1,3-dihydro-2H-benzo[d]imidazol-2-one], the pIC50 against human TLR7 is 8.17; on human TLR8, 8.96.

For `COc1cc(-c2cc3[nH]c(=O)n(C4CCC(N5CC[C@H](F)C5)CC4)c3cc2C(C)C)cn2ncnc12` (stereo partly drawn) [Example 286, (S)-1-(4-(3-fluoropyrrolidin-1-yl)cyclohexyl)-6-isopropyl-5-(8-methoxy-[1,2,4]triazolo[1,5-a]pyridin-6-yl)-1,3-dihydro-2H-benzo[d]imidazol-2-one], the pIC50 was 9.15 on human TLR7 and 9.05 on human TLR8.
